Source: patent US20250034089A1, “TETRAHYDROCARBAZOLE COMPOUND, AND PHARMACEUTICAL COMPOSITION AND USE THEREOF” (NAIN BIOTECH (HANGZHOU) CO., LTD., priority 2021, published 2025)

How the values were obtained:
[1] = system: HeLa (human cervical cancer cells); experiment: In vitro proliferation inhibition (CCK-8), HeLa; assay type: cell-based
From the text: • 1) Cell sources: HeLa (human cervical cancer cells), CaSki (human cervical cancer intestinal metastasis cells), Huh7 (human liver cancer cells), HepG2 (human liver cancer cells), Hep3B (human liver cancer cells) were purchased from the Chinese Academy of Sciences cell bank (Shanghai); LO2 (human normal liver cells) and HcerEpic (human normal uterine epithelial cells) were from ATCC. • 2) Cell culture and passage: The cell culture and passage method is the same as that described in “The inhibitory effect of compounds on the OCT4 protein in tumor stem cells (CSC)”. • 3) Cell dosing treatment: The each type of cells mentioned above was digested, counted, and inoculated in each well of the 96 well cell culture plate (#3988, Corning) at a density of 5000 cells/200 μl culture medium. They were cultured in a cell culture incubator at 37° C. and 5% CO2 for 24 hours to allow the cells to fully adherent to the wall. Then, the original culture medium was replaced with complete culture medium containing gradient diluted KZT-A5 (each concentration with 3 repeated wells) as well as DMSO (#D5879, Sigma Aldrich) solvent control, and they are cultured for additional 72 hours. • 4) Pharmacodynamic test and statistics: First, the morphology of cells treated with the above compounds was observed, photographed and recorded using an inverted phase contrast microscope (X71, Olympus). Then the original culture medium was replaced with phenol red free culture medium containing CCK-8 detection reagent (#E606335, Shanghai Shenggong) respectively, and they are cultured in the incubator for additional 2 hours. Then the OD450 nm absorbance value (OD value) was measured on a multifunctional enzyme-linked immunosorbent assay (168-1130, Bio Rad). After the cells were treated with the test compound, the equations for calculating the cell survival rate or cell growth rate is: survival rate=GD value of the treated group/OD value of the control group×100%; the equations for calculating the growth inhibition rate of compounds on cell proliferation is: inhibition rate=(OD value of control group−OD value of the treated group)/OD value of control group×100%. Further, the IC50 of each compound was calculated in SPSS based on the inhibition rate.
• 1) Cell sources: Huh7 (human liver cancer cells), HepG2 (human liver cancer cells), Hep3B (human liver cancer cells), and HeLa (human cervical cancer cells) were all purchased from the Chinese Academy of Sciences cell bank (Shanghai), while LO2 (human normal liver cells) was obtained from ATCC. • 2) Cell culture and passage: The cell culture and passage method is the same as that described in “The inhibitory effect of compounds on human tumor cell lines from different tissue sources (1)”. • 3) Cell dosing treatment: The cell dosing treatment method is the same as that described in “The inhibitory effect of compounds on human tumor cell lines from different tissue sources (1). • 4) Pharmacodynamic test and statistics: The pharmacodynamic test and statistics method is the same as that described in “The inhibitory effect of compounds on human tumor cell lines from different tissue sources (1)”. The IC50 value data of the compound on each type of tumor cells is the average±standard deviation of three wells in one test.

[2] = system: HcerEpic (human normal uterine epithelial cells); experiment: In vitro proliferation inhibition (CCK-8), HcerEpic; assay type: cell-based; conditions: Epithelial cell, 72 hours, CCK-8, average of three wells in one test
From the text: • 1) Cell sources: HeLa (human cervical cancer cells), CaSki (human cervical cancer intestinal metastasis cells), Huh7 (human liver cancer cells), HepG2 (human liver cancer cells), Hep3B (human liver cancer cells) were purchased from the Chinese Academy of Sciences cell bank (Shanghai); LO2 (human normal liver cells) and HcerEpic (human normal uterine epithelial cells) were from ATCC. • 2) Cell culture and passage: The cell culture and passage method is the same as that described in “The inhibitory effect of compounds on the OCT4 protein in tumor stem cells (CSC)”. • 3) Cell dosing treatment: The each type of cells mentioned above was digested, counted, and inoculated in each well of the 96 well cell culture plate (#3988, Corning) at a density of 5000 cells/200 μl culture medium. […] Then, the original culture medium was replaced with complete culture medium containing gradient diluted KZT-A5 (each concentration with 3 repeated wells) as well as DMSO (#D5879, Sigma Aldrich) solvent control, and they are cultured for additional 72 hours. • 4) Pharmacodynamic test and statistics: First, the morphology of cells treated with the above compounds was observed, photographed and recorded using an inverted phase contrast microscope (X71, Olympus). […] Then the OD450 nm absorbance value (OD value) was measured on a multifunctional enzyme-linked immunosorbent assay (168-1130, Bio Rad). […]

IC50 ([1]; 72 hours, CCK-8, average of three wells in one test): 570 nM
IC50 ([1]; Homo sapiens, 72 h, CCK-8, average of three wells in one test): < 1000 nM
IC50 ([1]; Homo sapiens, test (2), average±standard deviation of three wells): 700 ± 10 nM
SMILES: COc1cc(/C=C2\CCc3c([nH]c4ccc(C)cc34)C2=O)ccc1O [KZT-A5]
inhibitory effect compared with AH057 ([1]; Table 3): comparable to AH057
IC50 [2]: > 100000 nM
